Measured values as given in patent US20050100983A1, “Cell-free methods for identifying compounds that affect toll-like receptor 9 (TLR9) signaling” (Coley Pharmaceutical GmbH, priority 2003, published 2005).

How the values were obtained:
[1] = target: T1, mTLR9ect (extracellular domain of murine TLR9 fused to human IgG1-Fc) (Mus musculus, UniProt Q9EQU3); assay: SPR biosensor analysis of mTLR9ect binding to immobilized CpG-DNA
T1 construct: mTLR9ect (aa 1-816); made in house
T1 sequence (Q9EQU3 26-816): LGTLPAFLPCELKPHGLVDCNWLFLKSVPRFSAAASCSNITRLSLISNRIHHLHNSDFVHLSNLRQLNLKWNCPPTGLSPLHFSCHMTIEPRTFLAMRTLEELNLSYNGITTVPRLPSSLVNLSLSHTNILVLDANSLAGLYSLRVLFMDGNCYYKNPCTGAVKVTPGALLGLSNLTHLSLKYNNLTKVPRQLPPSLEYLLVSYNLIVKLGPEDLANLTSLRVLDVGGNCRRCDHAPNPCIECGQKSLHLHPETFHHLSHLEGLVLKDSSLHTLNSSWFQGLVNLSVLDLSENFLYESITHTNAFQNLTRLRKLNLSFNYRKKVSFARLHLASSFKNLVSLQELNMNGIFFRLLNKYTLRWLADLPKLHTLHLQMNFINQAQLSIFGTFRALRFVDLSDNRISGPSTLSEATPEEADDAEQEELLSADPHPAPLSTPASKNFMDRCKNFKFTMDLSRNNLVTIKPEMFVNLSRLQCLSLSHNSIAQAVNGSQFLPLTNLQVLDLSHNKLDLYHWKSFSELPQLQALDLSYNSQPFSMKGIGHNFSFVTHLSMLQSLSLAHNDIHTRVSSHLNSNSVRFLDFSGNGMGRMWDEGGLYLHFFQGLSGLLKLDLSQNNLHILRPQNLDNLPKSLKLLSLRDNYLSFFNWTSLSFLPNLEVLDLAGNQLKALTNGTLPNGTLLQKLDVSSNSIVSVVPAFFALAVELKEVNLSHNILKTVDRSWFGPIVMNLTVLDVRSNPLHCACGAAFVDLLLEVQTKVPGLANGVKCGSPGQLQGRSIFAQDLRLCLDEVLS
From the text: Protein. Recombinant fusion proteins consisting of the extracellular domain of Toll-like receptors mTLR9ect (aa 1-816), mTLR9ect-mut (see below) (aa 1-816), hTLR9ect (aa 1-815) and mTLR2ect (aa 1-587) fused to human IgG1-Fc were constructed by amplifying the corresponding extracellular domain and ligating the fragment in frame into a pcDNA3.1(−) (Invitrogen, Netherlands) vector containing the coding sequence for human IgG1-Fc. Fusion proteins were stably expressed in HEK 293 cells and purified from cell lysates by protein A affinity chromatography.
SPR biosensor analysis. Real-time binding of TLR9 or TLR2 was measured by surface plasmon resonance biosensor technology using the BiaCore X system (Uppsala, Sweden). For analysis of TLR9 and TLR2 interaction, biotinylated CpG-DNA and non-CpG-DNA, or biotinylated Pam3CysK4 and PHCK4, respectively, were loaded in running buffer (50 mM MES, 150 mM NaCl, 1 mM MgCl2 at pH 6.5) on SA chips precoated with streptavidin (Biacore AB, Uppsala, Sweden). Non-CpG-DNA or PHCK4 (Wiesmuller K H et al. (1989) Vaccine 7:29-33) served as reference for CpG-DNA and Pam3CysK4 interaction (structure or sequence in Table 1). […] TLR proteins were introduced at 200 nM or as indicated in 40 μl running buffer at a flow rate of 10 μl/min. Binding was measured at 25° C. for 750 s (delay time 300 s). […] Sensorgrams were recorded and kinetic data were calculated by the BiaCore Evaluation program (Biacore, version 3.0.1). Regeneration of the chip was performed by injection of 10 μl 50 mM NaOH, 1 M NaCl and extensive re-equilibration.
For detailed analysis of TLR9-CpG-DNA interaction, surface plasmon resonance (SPR) biosensor based technology was used with CpG- and non-CpG-DNA immobilized onto separate flow cells of a streptavidin-coated chip. Under these settings non-CpG-DNA served as reference for specific binding (see Methods). Binding of mTLR9ect to DNA was CpG-sequence-specific and increased in a dose-dependent manner. […] Using the 1:1 binding model of the BioEvaluation software as fitting algorithm and on the basis of four different mTLR9ect concentrations ranging from 50 to 300 nM, a dissociation constant (Kd) of 200 nM was obtained with low chi-squared residuals (4,76). […] Weber AN et al. (2003) Nat. Immunol. 4:794-800. Furthermore the concentration of CpG-DNA 1668 (SEQ ID NO:1) for half-maximal activation of murine TLR9 has been recently calculated as 70 nM which correlates well with the KD obtained here. Bauer S et al. (2001) Proc. Natl. Acad. Sci. U.S.A. 98:9237-9242. […] This difference in affinity correlates with the observed species-specific variance in CpG-motif recognition, as well as activation potential. Bauer S et al. (2001) Proc. Natl. Acad. Sci. U.S.A. 98:9237-9242.

[2] = target: T2, mTLR9ect (Mus musculus, UniProt Q9EQU3); assay: UV-crosslinking of mTLR9ect with 32P-labeled DNA and SDS-PAGE; assay type: binding, murine; details: SDS-PAGE, complex at 150 kDa
T2 construct: mTLR9ect (aa 1-816); made in house
T2 sequence (Q9EQU3 26-816): T1 sequence (Q9EQU3 26-816)
From the text: FIG. 1B is an image of an SDS-PAGE gel depicting purified proteins from FIG. 1A UV-crosslinked with ^32P-labeled CpG- or non-CpG-DNA, separated by SDS-PAGE, and autoradiographed. TLR9 and free DNA are highlighted.
Bauer S et al. (2001) Proc. Natl. Acad. Sci. U.S.A. 98:9237-9242. To assess binding of TLR9 to CpG-DNA, a recombinant fusion protein consisting of the extracellular domain of murine TLR9 and human IgG 1-Fc (mTLR9ect) was constructed. The extracellular domain of murine TLR2 also fused to IgG1-Fc (mTLR2ect) served as control. Proteins were expressed in HEK 293 cells and purified via protein A affinity chromatography (FIG. 1A). Under denaturing and non-reducing conditions mTLR9ect and mTLR2ect are approximately 10% in a monomeric and 90% in a dimeric form. Dimerization of the proteins is probably mediated by the IgG 1-Fc fusion partner which forms disulfide bonds (FIG. 1A). Initially, binding of mTLR9ect to radiolabeled DNA was determined by UV-crosslinking and subsequent SDS-PAGE.

[3] = target: T1, mTLR9ect (extracellular domain of murine TLR9 fused to human IgG1-Fc); assay: SPR biosensor analysis of mTLR9ect binding to immobilized CpG-DNA; details: pH 7.4

In the case of “5′-TCCATGACGTTCCTGATGCT-3′ (chemistry not given here) [CpG-DNA 1668, synthetic CpG oligodeoxynucleotide, TLR9 ligand]”, the Kd ([1]; 1:1 binding model, four mTLR9ect concentrations 50 to 300 nM, running buffer pH 6.5, 25° C., read-out: dissociation constant (Kd)) is reported as 200 nM, the “Binding of mTLR9ect to DNA” value ([1]; SPR, non-CpG-DNA as reference, pH 6.5) is reported as “CpG-sequence-specific” and the “release of bound mTLR9ect by free injected DNA” value ([1]; competition, free DNA added in dissociation phase) is reported as “dose dependently released bound mTLR9ect”. The “TLR9 binding to CpG-DNA” value ([1]; pH 6.5 or 5.5) was “strong”, the “dissociation of TLR9 from CpG-DNA” value ([1]; pH 6.5 or 5.5) was “weak dissociation” and the “effect of pre-incubation of mTLR9ect with DNA on binding to chip-immobilized CpG-DNA” value ([1]; pre-incubation prior to SPR analysis) was “abolished binding”. The “binding of mTLR9ect to radiolabeled DNA” value [2] was “bound”, the “TLR9 binding to CpG-DNA” value [3] was “weak” and the “dissociation of TLR9 from CpG-DNA” value [3] was “fairly rapidly”.
